In PubChem BioAssay (NCI):
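96-well plates; 48 h exposure; 5 concentrations. Endpoints by linear interpolation between flanking doses. Not reached: highest tested concentration assigned. GI50 = concentration required for 50% inhibition of growth. TGI marks complete inhibition of growth.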

How the values were obtained:
Test in all cases: DTP human tumour cell line panel, 48 h
SF-295 CNS = system: SF-295 CNS
OVCAR-3 ovarian = system: OVCAR-3 ovarian
NCI-H460 lung = system: NCI-H460 lung
HOP-92 NSCLC = system: HOP-92 NSCLC
SNB-19 CNS = system: SNB-19 CNS
OVCAR-8 ovarian = system: OVCAR-8 ovarian
K-562 leukemia = system: K-562 leukemia
MDA-N = system: MDA-N
CAKI-1 renal = system: CAKI-1 renal
NCI-H23 lung = system: NCI-H23 lung
HOP-62 NSCLC = system: HOP-62 NSCLC

Structure (SMILES) | TGI (SF-295 CNS) [µM] | TGI (OVCAR-3 ovarian) [µM] | TGI (NCI-H460 lung) [µM] | TGI (HOP-92 NSCLC) [µM] | TGI (SNB-19 CNS) [µM] | TGI (OVCAR-8 ovarian) [µM] | TGI (K-562 leukemia) [µM] | TGI (MDA-N) [µM] | TGI (CAKI-1 renal) [µM] | TGI (NCI-H23 lung) [µM] | TGI (HOP-62 NSCLC) [µM] | GI50 (HOP-92 NSCLC) [µM] | GI50 (SF-295 CNS) [µM] | GI50 (OVCAR-3 ovarian) [µM] | GI50 (CAKI-1 renal) [µM] | GI50 (HOP-62 NSCLC) [µM] | GI50 (NCI-H460 lung) [µM] | GI50 (OVCAR-8 ovarian) [µM] | GI50 (K-562 leukemia) [µM]
Cc1ccc(C(C)C)c(OCC(=O)N/N=C/c2c[nH]c3ccc(Br)cc23)c1 | 10.7 | 5.92 | 6.4 | 27.8 | 9.59 | 15 | 11.4 | 2.94 | 11.5 | 14.2 | 22 | – | – | – | – | – | – | – | –
O=C1C(c2c(O)[nH]c3ccc(Cl)cc23)=Nc2ccccc21 | > 78.8 | 17.9 | > 100 | 29.5 | > 81.4 | 21.9 | > 100 | > 100 | > 71.6 | 40.1 | 38 | – | – | – | – | – | – | – | –
Cc1cccc2c1Sc1ccccc1C2NC(=O)CN(C)C (configuration not stated) | – | – | > 100 | – | > 100 | > 100 | > 100 | – | – | > 100 | > 100 | – | – | – | – | – | – | – | –
CN(C)c1cccc(OC(=O)NCCCl)c1 | > 100 | > 100 | > 100 | > 100 | > 100 | > 100 | > 100 | – | > 100 | > 100 | > 100 | > 100 | – | – | – | – | – | – | –
O=C(Sc1n[nH]c(=O)[nH]c1=O)c1cccc2nc3ccccc3nc12 | > 100 | > 100 | > 100 | > 100 | > 100 | > 100 | > 100 | 28.6 | > 100 | 26.8 | – | – | – | – | – | – | – | – | –
CSCC(CO)NC(=O)/C=C/c1c(C)[nH]c(=O)[nH]c1=O (configuration not stated) | > 875 | 444 | > 875 | 742 | > 875 | > 348 | > 875 | – | > 87.5 | > 875 | > 875 | – | – | – | – | – | – | – | –
O=S(O)CCCSSSCCCS(=O)O | – | > 100 | > 100 | – | > 100 | – | > 100 | – | – | > 100 | > 100 | – | – | – | – | – | – | – | –
N#C/C(=C\c1ccc([N+](=O)[O-])o1)c1n[nH]c(Cc2ccccc2)n1 | 20.1 | 3.01 | 12.2 | 5.85 | 17.3 | > 25.1 | > 22.3 | 4.52 | 3.96 | 2.89 | 5.92 | – | – | – | – | – | – | – | –
c1csc(-c2ccc(CNc3c4ccccc4nc4ccccc34)cc2)c1 | 2.67 | 2.97 | – | 2.81 | – | – | – | – | 5.61 | – | 38.4 | 1.26 | 1.31 | 1.58 | 1.46 | 6.29 | – | – | –
NNC(=O)c1cc([N+](=O)[O-])ccc1NC(=O)C12CC3CC(CC(C3)C1)C2 | 63 | 84.3 | 62.8 | 51.7 | 21.4 | > 100 | > 100 | > 100 | > 100 | > 100 | > 100 | – | – | – | – | – | – | – | –
CC(=O)OC1CC(OC2C(O)CC(OC3C(O)CC(OC4CCC5(C)C(CCC6C5CCC5(C)C(C7=CC(=O)OC7)CCC65O)C4)OC3C)OC2C)OC(C)C1OC1OC(CO)C(O)C(O)C1O (configuration not stated) | 0.142 | 0.0883 | 0.0245 | 0.234 | 0.348 | 0.139 | > 100 | 0.152 | < 0.0321 | 0.0233 | < 0.0156 | – | – | – | – | – | – | – | –
COC(=O)c1sc2c(c1C(=O)OC)C(=NC(C)(C)C)SC2=NC(C)(C)C | 36.6 | 36.9 | 34.9 | 35.4 | 35.8 | 42.3 | 43.3 | 34 | 32.6 | 34.5 | 39 | – | – | – | – | – | – | – | –
COc1cc(NCCC(=O)O)c2ncccc2c1 | > 100 | > 100 | > 100 | > 100 | > 100 | > 100 | > 100 | > 100 | – | > 100 | > 100 | – | – | – | – | – | – | – | –
c1ccc2c(c1)SP1Sc3ccccc3P21 (configuration not stated) | > 100 | > 100 | > 100 | > 100 | > 31.6 | > 100 | > 100 | – | – | > 100 | > 100 | – | – | – | – | – | – | – | –
CN(c1ccccc1)c1nc(=[N+]2CCCC2)ss1 | – | > 100 | > 100 | – | > 100 | > 100 | > 100 | – | > 100 | – | – | – | – | – | – | – | – | – | –
CO/C=C1\OC(=O)C=C1OC | > 100 | > 100 | > 100 | > 100 | > 100 | > 100 | > 100 | – | > 100 | > 100 | – | – | – | – | – | – | – | – | –
Clc1cc(OCc2nn3c(Cc4ccccc4)nnc3s2)c(Cl)cc1OCc1nn2c(Cc3ccccc3)nnc2s1 | > 100 | > 100 | > 100 | 61.2 | 95.8 | > 100 | 24.2 | > 100 | > 100 | > 100 | > 100 | – | – | – | – | – | – | – | –
CC[C@@H]([C@H](O)c1ccccc1Cl)[N+](=O)[O-] | > 100 | > 100 | > 100 | > 100 | > 100 | > 100 | – | > 100 | > 100 | > 100 | > 100 | – | – | – | – | – | – | – | –
Nc1nc(Cl)c(N)c(NCC2(CO)CCC(CCc3ccccc3)C2)n1 (configuration not stated) | 29.8 | 50.3 | 32.2 | 49.2 | > 94 | 38.1 | 48 | 33.7 | 47.2 | 28.6 | 36.7 | – | – | – | – | – | – | – | –
Cc1ccc(Nc2nc(=O)c3c([nH]c4ccccc43)s2)cc1 | 24.3 | 27.3 | 25.7 | 25.6 | > 100 | 28.7 | > 100 | 5.87 | 24.5 | – | 21.8 | – | – | – | – | – | – | – | –
c1ccc2c(c1)SCCc1cn[nH]c1-2 | > 100 | > 100 | > 100 | > 100 | > 100 | > 100 | > 100 | – | > 100 | > 100 | > 100 | – | – | – | – | – | – | – | –
COCCNCc1ccc(-c2cc3nccc(Oc4ccc(NC(=O)C5(C(=O)Nc6ccc(F)cc6)CC5)cc4F)c3s2)nc1 | – | 4.82 | 3.4 | – | – | 5.13 | 1.83 | – | 4.83 | – | 3.43 | – | – | 2.2 | 2.08 | 1.57 | 1.66 | 2.11 | 0.252
c1ccc(C2=NN=C3C(c4ccccc4)=Nc4ccccc4N3C2)cc1 | – | > 24.5 | 23.5 | > 88.9 | > 100 | > 100 | > 100 | > 100 | > 100 | > 100 | > 100 | – | – | – | – | – | – | – | –
